Patent publication US10968183B2, “Small molecule FIEL1 inhibitor in inflammatory and fibrotic lung injury” (UNIVERSITY OF PITTSBURGH—OF THE COMMONWEALTH SYSTEM OF …, priority 2015, dated 2021)
Peptide text beside a SMILES is read from it. * marks the point of attachment. Cbz = O=C(OCc1ccccc1)*

How the values were obtained:
[1] = tested on: α-SMA expression in MRC5 cells; assay: α-SMA expression in MRC5 cells co-treated with TGFβ; type: cell-based, human; details: Homo sapiens; MRC5 cells, TGFβ 2 ng/ml, 18 h; FIG. 15D; read-out: IC50 for decrease of α-SMA expression
Protocol: (§1) FIG. 15A. Diagram of the BC-1485 synthesis process. FIGS. 15B-15C. Docking studies of the lead compound, BC-1485, interacting with the FIEL1-HECT domain. FIG. 15D. MRC5 cells were treated with the compound at various doses; cells were also co-treated with TGFβ at 2 ng/ml. 18 h later, cells were collected and assayed for α-SMA expression. FIG. 15E. MRC5 cells were seeded in 35 mm glass bottom dishes before co-treatment with TGFβ at 2 ng/ml and BC-1480 or BC1485 at 5μM. FIG. 15F. PIAS4 protein half-life determination after BC-1480 or BC1485 treatment at 5μM for 18 h. FIG. 15G. PIAS4 and KIAA0317 mRNA analysis after BC1485 treatment for 18 h.
MLE cells were cultured in Dulbecco's Modified Eagle Medium-F12 (Gibco) supplemented with 10% fetal bovine serum (DMEM-10). 293T cells were cultured in Dulbecco's Modified Eagle Medium (Gibco) supplemented with 10% fetal bovine serum (DMEM-10). MRC5 cells were cultured in Eagle's Minimum Essential Medium (Gibco) supplemented with 10% fetal bovine serum (EMEM-10). For protein expression in MLE cells, nucleofection was used following Amaxa's protocol. For protein overexpression in 293T cells, Fugene6HD transfection reagents were used following the manufacturer's protocol. For protein expression in MRC5 cells, MRC-5 Cell Avalanche™ Transfection Reagent was used following manufacturer's protocol. Cells were treated with TGFβ at 0-2 ng/ml for 0-18 h. For FIEL1, PKCξ, or GSK3β knockdown studies in cells, scramble shRNA, KIAA0317, PKCξ, or GSK3β shRNA were used to transfect cells for 48 h. For drug treatment, compounds were solubilized in DMSO before being added to the cells for up to 18 h. Cell lysates were prepared by brief sonication in 150 mM NaCl, 50 mM Tris, 1.0 mM EDTA, 2 mM dithiothreitol, 0.025% sodium azide, and 1 mM phenylmethylsulfonyl fluoride (Buffer A) at 4° C. For half-life study, MLE cells were exposed to cycloheximide (40 μg/ml) in a time dependent manner for up to 8 h. Cells were then collected and immunoblotted.

[2] = biological target: T1, FIEL1/PIAS4 interaction (Homo sapiens, UniProt O15033); assay: In vitro drug binding assay: PIAS4 pull-down on drug-bound FIEL1 beads; details: FIG. 7
T1 construct: made in house; host or cells: 293T cells (FIEL1)
T1 sequence (O15033 1-789 isoform O15033-2): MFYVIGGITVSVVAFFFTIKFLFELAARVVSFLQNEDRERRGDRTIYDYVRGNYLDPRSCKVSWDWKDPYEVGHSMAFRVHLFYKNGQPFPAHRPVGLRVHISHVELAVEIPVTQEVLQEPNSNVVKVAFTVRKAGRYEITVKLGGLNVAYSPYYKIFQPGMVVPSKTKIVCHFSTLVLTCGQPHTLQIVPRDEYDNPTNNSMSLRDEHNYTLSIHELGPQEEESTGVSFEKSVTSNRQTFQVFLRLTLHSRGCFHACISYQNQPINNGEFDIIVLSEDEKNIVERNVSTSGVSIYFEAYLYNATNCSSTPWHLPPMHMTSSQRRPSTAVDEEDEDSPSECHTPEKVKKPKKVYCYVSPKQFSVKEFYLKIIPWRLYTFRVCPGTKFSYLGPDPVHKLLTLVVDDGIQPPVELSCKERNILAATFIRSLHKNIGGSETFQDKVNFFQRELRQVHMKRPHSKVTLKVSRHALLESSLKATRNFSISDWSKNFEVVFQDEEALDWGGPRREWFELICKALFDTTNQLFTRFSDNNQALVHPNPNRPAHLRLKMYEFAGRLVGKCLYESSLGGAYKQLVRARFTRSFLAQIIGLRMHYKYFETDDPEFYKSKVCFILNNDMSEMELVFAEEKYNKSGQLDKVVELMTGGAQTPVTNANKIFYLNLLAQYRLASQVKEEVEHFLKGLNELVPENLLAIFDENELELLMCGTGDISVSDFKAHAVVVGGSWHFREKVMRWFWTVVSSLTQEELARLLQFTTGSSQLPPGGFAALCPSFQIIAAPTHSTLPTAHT
Protocol: (§2) FIG. 7A. […] FIG. 7B. Structures of the BC-1480 backbone and lead compound BC-1485. FIG. 7C. FIEL1 protein was HIS-purified from FIEL1 expression in 293T cells using cobalt beads. Beads were then extensively washed prior to exposure to BC-1480 or BC-1485 at different concentrations (10^−4 to 100 μM). Purified PIAS4 protein was then incubated with drug-bound FIEL1 beads overnight. Beads were washed, and proteins were eluted and resolved on SDS-PAGE. The relative amounts of PIAS4 detected in the pull-downs was normalized to loading and quantified (n=2). FIG. 7D. MLE cells were exposed to BC-1480 or BC-1485 at various concentrations for 18 h. Cells were then collected and immunoblotted. FIGS. 7E-J. C57BL/6J mice were administered with bleomycin (0.05 U) for 7-21 days. Compounds BC-1480 and BC-1485 were given to mice through drinking water with an estimated dose of 5 mg/kg/d. Mice were euthanized, and lungs were lavaged with saline, harvested, and then homogenized. Lavage proteins, CXCL1, and total cell count were measured in FIGS. 7E-G. H. Survival studies of mice that were given bleomycin and compound treatments. Mice were carefully monitored over time; moribund, preterminal animals were immediately euthanized and recorded as deceased. Kaplan-Meier survival curves were generated using SPSS software (p<0.01 compared to Vehicle). Vehicle: n=24, BC-1480: n=13, BC-1485: n=12. FIG. 7I. Hydroxyproline contents were measured in lungs from 7, 14, and 21d after bleomycin challenge. FIG. 7J. Trichrome staining was performed on lung samples from E. Original magnification, ×10. *p<0.05 compared to Vehicle (t-test). Data are an average of two experiments (FIGS. 7E-J, 4-8 mice/group)
FIEL1 protein was HIS-purified from FIEL1 expression 293T cells using cobalt beads. Beads were then extensively washed prior to exposure to BC-1480 or BC-1485 at different concentrations (10^−4 to 100 μM). Purified recombinant PIAS4 protein was then incubated with drug-bound FIEL1 beads overnight. […] The relative amounts of PIAS4 detected in the pull-downs were normalized to loading and quantified.

[3] = tested on: bleomycin-induced lung injury in C57BL/6J mice; assay: Bleomycin lung fibrosis model in mice; type: in vivo; details: bleomycin 0.05 U i.t., 7-21 days; estimated 5 mg/kg/d
Protocol: as §2
C57BL/6J mice were administered i.t. with bleomycin (0.05 U) for 7-21 days. Compounds BC-1480 and BC-1485 were given to mice through drinking water with an estimated dose of 5 mg/kg/d. Mice were then euthanized, and lungs were lavaged with saline, harvested, and then homogenized. Lavage IL-6 was measured in (FIG. 16A). Lavage cells were also processed for Wright-Giemsa stain; Lavage macrophages, neutrophils and lymphocytes were counted and graphed (FIGS. 16B-16D). H&E staining was performed on lung samples from A. Original magnification, ×10. *p<0.05 compared to Vehicle (t test). Data are an average of two experiments (A-E, 4-8 mice/group).
Murine lungs were dried and weighed prior to digestion with HCl. Hydroxyproline concentrations were measuring using methods previously described in Kesava Reddy et al., Clinical Biochemistry, 29(3): 225-229 (1996), and Neuman et al., J. of Biol. Chem., 184(1): 299-306 (1950). Hydroxyproline content was normalized to dry lung weight.
All procedures were approved by the University of Pittsburgh Institutional Animal Care and Use Committee. For fibrosis studies, male C57BL/6J mice were deeply anesthetized using a ketamine/xylazine mixture, and the larynx was well visualized under a fiber optic light source before endotracheal intubation with a 3/400 24-gauge plastic catheter. 10^7 CFU of lentivirus encoding genes for Empty (E), FIEL1, CON shRNA, or KIAA0317 shRNA was given i.t. for 144 h before administration of bleomycin (0.02 U˜0.05 U i.t.) for up to 21 days. Animals were euthanized and assayed for BAL protein, cell count, cytokines, and lung infiltrates. Survival studies were performed on mice that were given bleomycin (0.02 U˜0.05 U i.t.). Mice were carefully monitored over time; moribund, preterminal animals were immediately euthanized and recorded as deceased. For drug studies, mice were deeply anesthetized as above. Bleomycin (0.05 U i.t.) was given i.t. before BC-1480 or BC-1485 (5 mg/kg/d) was administered to the mice through their drinking water. 7-21d later, animals were euthanized and analyzed as above.

[4] = tested on: PIAS4; assay: PIAS4 protein half-life study (cycloheximide) in MLE cells; type: cell-based, murine; details: addition of proteasomal or lysosomal inhibitor; FIG. 9B
Text: FIG. 9A. PIAS4 protein half-life study in MLE cells transfected with Empty plasmid or Ubiquitin plasmid. FIG. 9B. PIAS4 protein half-life study with MG132 or Leupeptin. FIG. 9C. Immunoblots showing levels of PIAS4 proteins and V5 after ectopic FIEL1 or UBE3B plasmid expression. FIG. 9D. Immunoblots showing levels of FIEL1 proteins after ectopic FIEL1 plasmid expression in MLE, HeLa, and 293T cells. FIG. 9E. Immunoblots showing levels of PIAS4 proteins and V5 after ectopic FIEL1 plasmid expression in HeLa and 293T cells. FIG. 9F. MLE cells were transfected with an inducible control or FIEL1 plasmid under control of exogenous doxycycline. Cells were treated with doxycycline in a dose dependent manner. Cells were then collected and cell lysates were immunoblotted for FIEL1 and PIAS4. FIG. 9G. MRC5 cells were exposed to TGFβ for 24 h before being assayed for PIAS4 and FIEL1 protein half-lives.
as §1
MLE cells were cultured in Dulbecco's Modified Eagle Medium-F12 (Gibco) supplemented with 10% fetal bovine serum (DMEM-10). 293T cells were cultured in Dulbecco's Modified Eagle Medium (Gibco) supplemented with 10% fetal bovine serum (DMEM-10). MRC5 cells were cultured in Eagle's Minimum Essential Medium (Gibco) supplemented with 10% fetal bovine serum (EMEM-10). For protein expression in MLE cells, nucleofection was used following Amaxa's protocol. For protein overexpression in 293T cells, Fugene6HD transfection reagents were used following the manufacturer's protocol. […]

Row | Structure (SMILES) | IC50 [1] | inhibition of FIEL1 and PIAS4 interaction [2] | lung (pulmonary) fibrosis [3] | PIAS4 protein half-life [4]
1 | O=C(O)c1ccc(NS(=O)(=O)c2ccc3[nH]c(=O)[nH]c3c2)cc1 [BC-1480, 4-(2-oxo-2,3-dihydro-1H-benzo[d]imidazole-5-sulfonamido)benzoic acid] | ~4 µM | inhibition of FIEL1 and PIAS4 interaction | inhibition of pulmonary fibrosis | –
2 | CC(C)C[C@@H](C=O)NC(=O)[C@H](CC(C)C)NC(=O)[C@H](CC(C)C)NC(=O)OCc1ccccc1 [MG132] (Cbz-Leu-Leu-Leu-aldehyde) | – | – | – | significantly increased
3 | CC(=O)N[C@@H](CC(C)C)C(=O)N[C@@H](CC(C)C)C(=O)N[C@H](C=O)CCCNC(=N)N [Leupeptin] | – | – | – | an effect unobserved
